Test results: patent publication US20150329896A1, “N-END RULE PROTEASE ACTIVITY […] AND USES THEREOF” (priority 2010, published 2015)
Peptide text beside a SMILES is read from it. * marks the point of attachment. Cbz = O=C(OCc1ccccc1)*

Test system: proteasome
Type: cell-based

CC(C)C[C@@H](C=O)NC(=O)[C@H](CC(C)C)NC(=O)[C@H](CC(C)C)NC(=O)OCc1ccccc1 [MG132] (Cbz-Leu-Leu-Leu-aldehyde) was tested, and the “level of C-terminal (P9-luciferase) fragment produced by BoNT/A proteolysis” value was “accumulated”.
